The record followed here is patent publication US20110105540A1, “2-AMINO-9-[4-(4-METHOXY-PHENOXY)-PIPERIDIN-1-YL]-4-PHENYL-INDENO[1,2-D]PYRIMIDIN-5-ONE AND ITS USE AS A HIGHLY SELECTIVE ADENOSINE A2a RECEPTOR ANTAGONIST” (priority 2009, published 2011).

Test [1] addresses T1, human adenosine A2A receptor (Homo sapiens, UniProt P29274).
T1 construct: expressed in transfected cells; host or cells: CHO-K1
The test can be described thus: Adenosine A2A Receptor Functional Assay (A2AGAL2). Format: cell-based. On the procedure:
To initiate the functional assay, cryopreserved CHO-K1 cells overexpressing the human adenosine A2A receptor and containing a cAMP inducible beta-galactosidase reporter gene were thawed, centrifuged, DMSO containing media removed, and then seeded with fresh culture media into clear 384-well tissue culture treated plates (BD #353961) at a concentration of 10K cells/well. Prior to assay, these plates were cultured for two days at 37° C., 5% CO2, 90% Rh. On the day of the functional assay, culture media was removed and replaced with 45 μL assay medium (Hams/F-12 Modified (Mediatech #10-080CV) supplemented w/0.1% BSA). Test compounds were diluted and 11 point curves created at a 1000× concentration in 100% DMSO. Immediately after addition of assay media to the cell plates, 50 nL of the appropriate test compound antagonist or agonist control curves were added to cell plates using a Cartesian Hummingbird. Compound curves were allowed to incubate at room temperature on cell plates for approximately 15 minutes before addition of a 15 nM NECA (Sigma E2387) agonist challenge (5 μL volume). […]
The colorimetric reaction was stopped with the addition of 60 μL/well 1M sodium carbonate. Plates were counted at 405 nm on a SpectraMax Microplate Reader (Molecular Devices). Data was analyzed in Microsoft Excel and IC/EC50 curves were fit using a standardized macro.

For test [2], the target named is T2, human adenosine A1 receptor (Homo sapiens, UniProt P30542).
T2 construct: expressed in transfected cells; host or cells: CHO-K1
T2 sequence (P30542 1-326): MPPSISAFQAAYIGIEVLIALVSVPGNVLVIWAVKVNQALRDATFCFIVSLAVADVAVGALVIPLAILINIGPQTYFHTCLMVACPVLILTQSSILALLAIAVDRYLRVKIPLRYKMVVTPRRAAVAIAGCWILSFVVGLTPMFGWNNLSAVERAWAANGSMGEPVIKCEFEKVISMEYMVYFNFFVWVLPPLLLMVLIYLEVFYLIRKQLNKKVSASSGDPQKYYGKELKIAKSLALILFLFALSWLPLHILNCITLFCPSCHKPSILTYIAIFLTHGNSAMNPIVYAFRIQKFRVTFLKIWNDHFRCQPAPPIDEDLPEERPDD
The test can be described thus: Adenosine A1 Receptor Functional Assay (A1GAL2). Format: cell-based. The conditions noted are these: CHO-K1 cells overexpressing human A1 receptor, cAMP inducible beta-galactosidase reporter, 4 nM r-PIA/1 uM Forskolin agonist challenge. On the procedure: To initiate the functional assay, cryopreserved CHO-K1 cells overexpressing the human adenosine A1 receptor and containing a cAMP inducible beta-galactosidase reporter gene were thawed, centrifuged, DMSO containing media removed, and then seeded with fresh culture media into clear 384-well tissue culture treated plates (BD #353961) at a concentration of 10K cells/well. Prior to assay, these plates were cultured for two days at 37° C., 5% CO2, 90% Rh. On the day of the functional assay, culture media was removed and replaced with 45 μL assay medium (Hams/F-12 Modified (Mediatech #10-080CV) supplemented w/0.1% BSA). Test compounds were diluted and 11 point curves created at a 1000× concentration in 100% DMSO. Immediately after addition of assay media to the cell plates, […] of the appropriate test compound antagonist or agonist control curves were added to cell plates using a Cartesian Hummingbird. Compound curves were allowed to incubate at room temperature on cell plates for approximately 15 minutes before addition of a 4 nM r-PIA (Sigma P4532)/1 uM Forskolin (Sigma F3917) agonist challenge (5 μL volume). […] Plates were counted at 405 nm on a SpectraMax Microplate Reader (Molecular Devices). Data was analyzed in Microsoft Excel and IC/EC50 curves were fit using a standardized macro.

T1 sequence (P29274 whole entry): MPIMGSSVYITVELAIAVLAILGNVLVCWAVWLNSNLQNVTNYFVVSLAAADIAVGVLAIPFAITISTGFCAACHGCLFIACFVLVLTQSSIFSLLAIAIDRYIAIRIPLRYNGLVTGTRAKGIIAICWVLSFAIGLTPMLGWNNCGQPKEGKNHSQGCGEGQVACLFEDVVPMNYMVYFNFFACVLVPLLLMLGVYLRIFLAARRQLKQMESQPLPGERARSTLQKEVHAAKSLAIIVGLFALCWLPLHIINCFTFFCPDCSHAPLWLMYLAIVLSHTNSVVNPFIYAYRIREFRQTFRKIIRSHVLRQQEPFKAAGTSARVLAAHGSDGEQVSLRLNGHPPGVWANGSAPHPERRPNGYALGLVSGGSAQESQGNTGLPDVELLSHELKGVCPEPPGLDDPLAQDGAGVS

As usually defined, the IC50 is the concentration that gives 50% inhibition. For the compound `COc1ccc(OC2CCN(c3cccc4c3-c3nc(N)nc(-c5ccccc5)c3C4=O)CC2)cc1` [Example A, 2-Amino-9-[4-(4-methoxy-phenoxy)-piperidin-1-yl]-4-phenyl-indeno[1,2-d]pyrimidin-5-one], the IC50 in test [1] (CHO-K1 cells overexpressing human A2A receptor, cAMP inducible beta-galactosidase reporter, 15 nM NECA agonist challenge) is 0.0023 µM; in test [2], 7.3 µM. In addition, the A1/A2A in test [1] (ratio of A1Gal2 to A2AGal2 values (selectivity for A2A over A1)) was determined as 3173.91.
